Tests used:
[1] = Film thickness of skin scaffold by Dual Polarization Interferometry; format: physicochemical
Excerpt: Film thickness of skin scaffold of polymer 1-Octadecanaminium NN Dimethyl (3 Trihydroxysilyl)propyl chloride polymer with Dual Polarization interferometry.

[2] = 2 g/kg applied to 10% of shaven skin, ten test animals, Study Day 1; cited from earlier work

Compound | MASS ([1]; 40 seconds post injection) [ngmm^−2] | THICKNESS ([1]; 40 seconds post injection) [nm] | MASS ([1]; 10 minutes post injection) [ngmm^−2] | THICKNESS ([1]; 10 minutes post injection) [nm] | Skin reaction at the application site [2]
CCCCCCCCCCCCCCCCCC[N+](C)(C)CCC[Si](OC)(OC)OC.[Cl-] [ODTMSPC, 1-Octadecanaminium, N,N, Dimethyl-N-[(3-trimethoxysilyl)propyl] chloride] | 3.83 | 41.31 | 3.76 | 33.51 | –
alkyldimethylbenzylammonium chloride [Benzalkonium chloride] | – | – | – | – | all test animals exhibit erythema, and edema at the application site
